One block for each compound: values may come before it.
Columns and labels:
[1] = system: NMDA receptors; experiment: NMDA-induced calcium response, calcium imaging in cultured cortical neurons; format: cell-based, mouse; settings: 100 μM NMDA with 3 μM glycine, no Mg2+; AP-V at 40 μM
Experimental: To determine whether the compounds have effects on the function of NMDA receptors, calcium imaging recordings from cultured cortical neurons were performed as described previously (Nicolai, et al., 2010, Cell Death Dis. 1:e33).
Primary cortical neurons were obtained from the cerebral cortex of neonatal (P1 or P2) C57BL/6 mice, plated at a density of 3000 cells/12 mm round coverslip, and cultured in medium containing Neurobasal A, fetal calf serum (2%), heat-inactivated horse serum (2%), L-glutamax-1 (0.2 mM), and B-27 supplement (2%). Cells were maintained at 37° C. in a humidified atmosphere containing 5% CO2. The calcium imaging experiments were conducted on DIV 1.
Recordings were performed in living neurons, as described (Xia, et al., 2014, J. Physiol. 592:3443-3461). Briefly, cultured neurons were loaded with a Fura-2 calcium dye in Tyrode's solution containing (in mM) 140 NaCl, 5 KCl, 2 CaCl2, 1 MgCl2, 10 HEPES, and 5.6 glucose. Coverslips were mounted in the imaging chamber (model RC-25, Warner Instruments, Hamden, Conn.) and continuously perfused with Tyrode's solution containing 0.5 μM tetrodotoxin. Images were acquired in 3 s intervals at room temperature (20-22° C.) using an Olympus inverted microscope equipped with a CCD camera (Hamamatsu ORCA-03G, Japan). The fluorescence ratio was determined as the fluorescence intensities excited at 340 and 380 nm with background subtracted. 100 μM NMDA was applied in the presence of 3 μM glycine and in the absence of Mg^2+. The NMDA receptor antagonist AP-V (40 μM) was applied to certify that the result was specifically the NMDA-induced calcium response. Vehicle, GT949, or GT951 was applied, and calcium changes were recorded.
Recordings were performed in living neurons, as described (Xia, et al., 2014, J. Physiol. 592:3443-3461). Briefly, cultured neurons were loaded with Fura-2 calcium dye in Hank's balanced salt solution (HBSS). 100 μM NMDA was applied in the presence of 3 μM glycine and in the absence of Mg^2+. […] Vehicle, GT949, or GT951 was applied, and calcium currents were recorded.

[2] = biological target: T1, EAAT3 (Homo sapiens, UniProt P43005); experiment: Dose-response glutamate uptake in COS-7 cells transfected with EAAT3; format: cell-based
T1 construct: expressed in transfected cells; host or cells: COS-7
T1 sequence (P43005 1-524): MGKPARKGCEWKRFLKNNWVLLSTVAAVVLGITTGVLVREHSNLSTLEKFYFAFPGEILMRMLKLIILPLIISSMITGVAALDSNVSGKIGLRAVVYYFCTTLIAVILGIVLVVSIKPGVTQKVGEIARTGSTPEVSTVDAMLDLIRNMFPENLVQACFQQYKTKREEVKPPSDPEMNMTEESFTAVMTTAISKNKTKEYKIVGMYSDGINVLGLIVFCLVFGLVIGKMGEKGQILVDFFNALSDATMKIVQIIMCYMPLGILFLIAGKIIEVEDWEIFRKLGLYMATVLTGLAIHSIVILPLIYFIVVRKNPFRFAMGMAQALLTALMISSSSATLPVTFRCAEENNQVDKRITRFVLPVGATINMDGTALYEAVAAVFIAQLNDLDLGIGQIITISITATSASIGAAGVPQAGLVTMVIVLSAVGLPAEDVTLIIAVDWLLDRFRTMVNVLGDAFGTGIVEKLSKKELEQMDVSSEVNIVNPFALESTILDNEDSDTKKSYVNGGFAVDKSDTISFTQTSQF
Excerpt: (§1) COS-7 cells were maintained in DMEM with 10% fetal calf serum under 5% CO2. Transfection with empty vector pCMV-5 was used to control for the level of endogenous uptake of radiolabeled substrate in each experimental condition. The specificity of the effect of the compounds was investigated in COS-7 cells transiently transfected with glutamate transporter subtypes EAAT1-3 and monoamine transporters hNET (human noradrenaline transporter), hDAT (dopamine transporter), and hSERT (serotonin transporter).
(§2) For glutamate uptake assays, subconfluent COS-7 cells were transfected with 0.5 μg of plasmid DNA per well using TransIT-LT1 transfection reagent (Mirus Bio LLC, Madison, Wis.) and plated at a density of ˜100 000 cells per well in 24-well tissue culture plates. For monoamine uptake assays, cells were transfected 0.1 μg of DNA per well as above and plated at a density of 10 000 cells per well in 96-wells plates.
[…]. […]
(§3) All reactions were carried out for 10 min; then, uptake was terminated by removal of solution, followed by two washes with PBSCM. […] Lysate was transferred to scintillation vials containing 3 mL of scintillation fluid, and radioactivity was quantified in an LS 6500 scintillation counter (Beckman Coulter, Brea, Calif.). For 96-well plates, scintillation fluid was added to each well, and the plate was counted in a Wallac M50 microbeta scintillation analyzer.

[3] = system: cultured astrocytes; experiment: Glutamate uptake in cultured astrocytes; format: cell-based, rat
Experimental: Glia was prepared and cultured according to Shimizu, et al., 2011, J. Visualized Exp. e3257 with modifications. Briefly, cerebral cortices from 2-4 day old Holtzman rat pups were dissected under sterile conditions and placed in 60 mm dishes containing dissection medium (in mM: 16 glucose, 22 sucrose, 135 NaCl, 5 KCl, 1 Na2HPO4, 0.22 KH2PO4, 10 HEPES, pH 7.4, Osmolarity 310+10 mOsm). Tissue was minced with curved scissors and digested in 0.25% trypsin for 15 min. Trypsin activity was ended by transferring tissue pieces to another vial with dissection medium. Tissue was then repeatedly passed through a serological plastic pipette until it was dissociated by trituration in the presence of 60 μg/mL DNase. Cells were pelleted by centrifugation for 15 min at 280 g and resuspended in glia plating medium (90% DMEM, 10% FBS, and 50 μg/mL gentamicin) and transferred to culture flasks kept in a 37° C. incubator (5-10% CO2). After growth for 10 days in vitro (DIV), cells were detached with 0.05% trypsin, centrifuged, and plated at a density of 10 000 cells/well in polylysine-coated 96-well plates. Plates were grown for 14 DIV before uptake assays were performed.
Assays were performed as described (Timple, et al., 2013, J. Nat. Prod. 76:1889-1895). Briefly, using an Elx50 Biotek plate washer (Winooski, Vt., USA), cells were washed in PBS-CM buffer. For dose-response assays, vehicle and several concentrations of the compounds (0.01 nM to 1 μM) were added and incubated for 10 min at 37° C. Uptake assays were initiated by addition of 50 nM L-[^3H]-glutamate, and incubation was carried on for 10 min at room temperature. Nonspecific uptake was obtained in the presence of 10 μM DL-TBOA.
Reactions were finished by washing the plates twice with PBS-CM and the addition of 100 μL of scintillation fluid to each well. Radioactivity was counted in a microplate scintillation and luminescence counter (Wallac, Shelton, Conn., USA).

[4] = biological target: T2, EAAT1 (Homo sapiens, UniProt P43003); experiment: Dose-response glutamate uptake in COS-7 cells transfected with EAAT1; format: cell-based
T2 construct: expressed in transfected cells; host or cells: COS-7
Excerpt: as §1, §2
[…]. […]
as §3

[5] = biological target: T3, EAAT2 (Homo sapiens, UniProt P43004); experiment: Dose-response glutamate uptake in COS-7 cells transfected with EAAT2; format: cell-based; settings: for kind of modulation of EAAT2 glutamate uptake in dose-response assays: COS-7 cells expressing EAAT2
T3 construct: expressed in transfected cells; host or cells: COS-7
Excerpt: as §1, §2
Uptake reactions were initiated by the addition of 50 nM ^3H-L-glutamate, serotonin, dopamine, or noradrenaline, as appropriate.
All reactions were carried out for 10 min; then, uptake was terminated by removal of solution, followed by two washes with PBSCM. Cells in 24-well plates were lysed with 1% SDS/0.1 M NaOH. Lysate was transferred to scintillation vials containing 3 mL of scintillation fluid, and radioactivity was quantified in an LS 6500 scintillation counter (Beckman Coulter, Brea, Calif.). For 96-well plates, scintillation fluid was added to each well, and the plate was counted in a Wallac M50 microbeta scintillation analyzer.

[6] = biological target: T3, EAAT2; experiment: Kinetic assay of L-glutamate uptake in EAAT2-transfected COS-7 cells; format: cell-based; settings: GT949 and GT951 pre-incubated at 1 nM
Excerpt: as §1, §2, §3

T3 sequence (P43004 whole entry): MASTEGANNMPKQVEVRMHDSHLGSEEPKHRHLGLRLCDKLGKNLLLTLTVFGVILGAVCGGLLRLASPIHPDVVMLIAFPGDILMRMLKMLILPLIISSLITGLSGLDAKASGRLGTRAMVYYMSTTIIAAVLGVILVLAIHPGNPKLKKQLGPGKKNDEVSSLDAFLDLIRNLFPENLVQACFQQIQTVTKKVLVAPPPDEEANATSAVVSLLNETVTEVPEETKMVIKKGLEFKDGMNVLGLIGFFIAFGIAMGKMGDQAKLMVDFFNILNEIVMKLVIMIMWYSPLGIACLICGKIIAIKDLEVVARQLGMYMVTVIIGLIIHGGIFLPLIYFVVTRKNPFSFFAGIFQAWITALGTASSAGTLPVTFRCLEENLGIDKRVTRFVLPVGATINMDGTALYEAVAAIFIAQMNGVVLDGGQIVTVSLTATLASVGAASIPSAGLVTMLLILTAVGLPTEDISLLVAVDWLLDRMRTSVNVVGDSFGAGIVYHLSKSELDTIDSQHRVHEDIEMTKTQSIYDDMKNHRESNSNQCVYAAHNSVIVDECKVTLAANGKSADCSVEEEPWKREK
T2 sequence (P43003 whole entry): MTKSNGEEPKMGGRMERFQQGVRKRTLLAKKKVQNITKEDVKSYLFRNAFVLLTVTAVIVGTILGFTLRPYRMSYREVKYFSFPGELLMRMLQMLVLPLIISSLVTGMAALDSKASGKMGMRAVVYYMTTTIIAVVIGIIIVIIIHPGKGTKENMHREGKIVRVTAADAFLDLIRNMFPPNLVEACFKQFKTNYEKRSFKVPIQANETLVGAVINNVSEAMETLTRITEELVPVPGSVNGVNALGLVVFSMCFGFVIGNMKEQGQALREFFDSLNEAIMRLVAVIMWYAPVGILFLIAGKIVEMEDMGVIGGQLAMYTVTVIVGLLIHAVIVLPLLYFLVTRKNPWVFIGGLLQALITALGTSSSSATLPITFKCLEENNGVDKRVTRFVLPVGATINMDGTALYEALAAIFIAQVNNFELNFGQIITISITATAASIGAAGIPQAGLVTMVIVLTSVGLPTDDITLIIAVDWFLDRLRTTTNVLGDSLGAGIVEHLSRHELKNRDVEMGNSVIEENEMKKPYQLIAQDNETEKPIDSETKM

Compound: Cc1cc(C)c2cc(C(c3nnnn3CCc3ccccc3)N3CCN(C(=O)c4ccco4)CC3)c(=O)[nH]c2c1 (stereo not drawn) [GT996, 3-((4-(furan-2-carbonyl)piperazin-1-yl)(1-phenethyl-1H-tetrazol-5-yl)methyl)-5,7-dimethylquinolin-2(1H)-one]
modulation of glutamate transport in cultured astrocytes ([3]; cultured rat astrocytes, negative control): inactive

Compound: COc1ccc(C2C(C#N)=C(N)OC3=C2C(=O)CC(c2cccc4ccccc24)C3)cc1 (stereo not drawn) [UCPH-101, 2-Amino-5,6,7,8-tetrahydro-4-(4-methoxyphenyl)-7-(naphthalen-1-yl)-5-oxo-4H-chromene-3-carbonitrile, reference compound]
inhibition of glutamate uptake in cultured glial cells by selective EAAT inhibitors ([3]; 50 nM 3H-L-glutamate): partial inhibition

Compound: O=C(c1ccc(S(=O)(=O)N2CCCC2)cc1)N1CCN(c2nc(-c3ccccc3)nc3sc4c(c23)CCC4)CC1 [GT988, (4-(2-phenyl-6,7-dihydro-5H-cyclopenta [4,5]thieno[2,3-d]pyrimidin-4-yl)piperazin-1-yl)(4-(pyrrolidin-1-ylsulfonyl)phenyl) methanone]
kind of modulation of EAAT2 glutamate uptake in dose-response assays [5]: no effect

Compound: NC(CCCP(=O)(O)O)C(=O)O (racemic) [AP-V, (DL)-2-amino-5-phosphonovaleric acid, reference compound]
effect on NMDA-induced calcium response [1]: drastically attenuated

Now from value to compound, other results behind:

effect on EAAT3-mediated glutamate transport [2]: no effect
EC50 ([3]; Rattus norvegicus, Astrocyte, cultured rat astrocytes, 50 nM 3H-L-glutamate, read-out: potency (EC50) of glutamate uptake enhancement in cultured astrocytes): 0.3 ± 0.2 nM
effect on EAAT1-mediated glutamate transport [4]: no effect
Compound: COc1ccc2[nH]c(=O)c(C(c3nnnn3CCc3ccccc3)N3CCN(c4cccc(C(F)(F)F)c4)CC3)cc2c1 (stereo not drawn) [GT951, 6-methoxy-3-((1-phenethyl-1H-tetrazol-5-yl)(4-(3-(trifluoromethyl)phenyl)piperazin-1-yl)methyl)quinolin-2(1H)-one]
effect on NMDA-induced calcium response [1]: no effects
efficacy of augmentation of glutamate transport in cultured astrocytes ([3]; cultured rat astrocytes): ~27%

kind of modulation of EAAT2 glutamate uptake in dose-response assays [5]: no effect
Compound: Cc1ccc(C)c2[nH]c(=O)c(C(c3nnnn3CCc3ccccc3)N3CCN(Cc4ccc5c(c4)OCO5)CC3)cc12 (stereo not drawn) [GT867, 3-((4-(benzo[d][1,3]dioxol-5-ylmethyl)piperazin-1-yl)(1-phenethyl-1H-tetrazol-5-yl)methyl)-5,8-dimethylquinolin-2(1H)-one]

kind of modulation of EAAT2 glutamate uptake in dose-response assays [5]: inhibitors
Compound: C=CCN1CC(c2nc3ccccc3n2CCCCOc2ccc(C)c(C)c2)CC1=O (stereo not drawn) [GT938, 1-allyl-4-(1-(4-(3,4-dimethylphenoxy)butyl)-1H-benzo[d]imidazol-2-yl)pyrrolidin-2-one]

effect on Vmax of transport [6]: increased Vmax
effect on NMDA-induced calcium response [1]: no effects
effect on EAAT3-mediated glutamate transport [2]: no effect
kind of modulation of EAAT2 glutamate uptake in dose-response assays [5]: PAMs
EC50 ([5]; COS-7 cells transfected with EAAT2, compound 10 min 37 °C, 50 nM 3H-L-glutamate, mean±SEM, read-out: EC50 (ED50) of enhancement of EAAT2-mediated glutamate transport): 0.7 ± 0.2 nM
effect on EAAT1-mediated glutamate transport [4]: no effect
Compound: C=CCN1CC(c2nc3ccccc3n2CCCCOc2ccc(Cl)c(C)c2)CC1=O (stereo not drawn) [GT939, 1-allyl-4-(1-(4-(4-chloro-3-methylphenoxy)butyl)-1H-benzo[d]imidazol-2-yl)pyrrolidin-2-one]

kind of modulation of EAAT2 glutamate uptake in dose-response assays [5]: inhibitors
Compound: C=CCN1CC(c2nc3ccccc3n2CCCOc2ccc(C(C)CC)cc2)CC1=O (stereo not drawn) [GT922, 1-allyl-4-(1-(3-(4-(sec-butyl)phenoxy)propyl)-1H-benzo[d]imidazol-2-yl)pyrrolidin-2-one]

From patent US11377452B2, “Glutamate transporter activators and methods using same” (DREXEL UNIVERSITY, priority 2017, dated 2022)
